The values below come from patent publication US12643893B2, “Heteroaryl-pyridinium compound and redox flow battery comprising the same” (Korea Advanced Institute of Science and Technology, priority 2021, dated 2026).

Read-outs that look alike come from different tables or passages of the source.

Data set [1] in a line: Electron-transfer rate from CV curves (Nicholson method). It is filed as physicochemical. As to conditions: for electron-transfer constant (k^o): 0.1 M TBATFSI/MeCN. On the procedure:
The electron-transfer rate (k^0) was calculated from CV curves and using the Nicholson method(equation S2).
where k^o is the electron-transfer constant (cm/s), D is the diffusion coefficient estimated from the above RDE studies, R is the gas constant (8.314 J K^−1 mol^−1), T is the temperature (298 K), v is the scan rate of the CVs (mV s^−1).
The Ψ value was obtained by Kingler and Kochi relation (equation S3).
where ΔEp is the peak-to-peak potential for the corresponding reduction or oxidation event.

Data set [2] in a line: Rotating disk electrode LSV, diffusion coefficient (Levich equation). It is filed as physicochemical. Particulars: for diffusion coefficient (D): 0.1 M TBATFSI/MeCN. Here is the method:
To measure diffusion coefficient (D), rotating disk electrode (RDE; ALS Co., Ltd) measurements were conducted with the same three-electrode cells. […] Limited mass-transport provides a current plateau (iL) of redox processes, which is linearly proportional to the square root of the rotating rates (ω^1/2). The diffusion coefficient (D) was calculated by plotting IL as a function of ω^1/2 and through the Levich equation (equation S1). iL=0.620nFAD^2/3ω^1/2η^−1/6Co (equation S1)
where IL is the limiting current (A cm^−2), n is the number of electrons transferred during the redox reaction, F is the Faraday's constant (96485 C mol^−1), A is the area of the electrode (0.0707 cm^2), D is the diffusion coefficient (cm^2 […]), ω is the angular rotation rate (rad s^−1), η is the kinematic viscosity (0.00442 cm^2 s^−1, referred to 0.1 M TBAPF6/MeCN), and Co is the concentration of the sample chemical.

Data set [3] in a line: Cyclic voltammetry (CV) in three-electrode cells. In kind it is physicochemical. Particulars: for peak-to-peak potential difference (ΔEp): maintained for 100 CV cycles; for anodic-to-cathodic peak current ratio (Ipa/Ipc): preserved during 100 CV cycles; for Peak to peak potential difference (ΔEp) / Ratio of anodic peak current (Ipa) to cathodic peak current (Ipc) (Ipa/Ipc) @50 mV s^−1: 1st event (or only value); for potential shift after CV cycles: FIG. 7. Here is the method: All electrochemical examinations were carried out using a Biologic VMP3 electrochemical workstation in an Ar-filled glove box (MOTek, negligible O2 and H2O, tested by the ketyl solution).
Cyclic voltammetry (CV) was conducted in three-electrode cells comprised of glassy carbon (GC; diameter (d)=3 mm) as the working electrode (WE), a platinum wire as the counter electrode (CE), and a leak-free Ag/AgCl as the reference electrode (RE). The GC electrodes were polished using alumina slurry before testing (ALS Co., Ltd).
After CV analysis, ferrocene (Fc, ferrocene, 98%, Sigma-Aldrich) was added to the cell to measure its redox potential, and the measured sample potential was converted to the Fc/Fc^+.

For data set [4] the following is noted: expected from the permeability.
A short description of data set [5]: Radical stability, UV-Vis time-dependent concentration decay. It is filed as physicochemical. As to conditions: for time-dependent concentration decay of the radical: in 0.5 M TBATFSI/MeCN. The text has this:
FIG. 10—Radical stability of TMAP-BTP^·+ and BTP^·. (a-b) UV-Vis spectra of (a) TMAP-BTP^·+ and (b) BTP^· in 0.5 M TBATFSI/MeCN. (c-d) Calculated time-dependent concentration decay of (c) TMAP-BTP^·+ (0.22%/day) and (d) BTP (0.63%/day). Better stability of TMAP-BTP^·+ than BTP^· is presumably attributed to the cationic TMAP groups, which repel the redox molecules and prevent chemical reactions.

Data set [6] is described as follows: Solubility test (UV-vis calibration curves, maximum solubility). As to conditions: organic solvent or mixture, thermodynamic from solid.
The mark [7] stands for this setting: c1, first cathodic event (single value for BTMAP-Fc, oxidation process).
Where [8] appears, read: 1st event (single value for BTMAP-Fc), after 100 cycles (in parentheses).
Where [9] appears, read: 1st event (single value for BTMAP-Fc), initial.
The mark [10] stands for this setting: 1st redox event (single value for BTMAP-Fc), 4 mM in 0.1 M TBATFSI/MeCN.
Setting [11] is: first redox event (single event for BTMAP-Fc), CV, 4 mM in 0.1 M TBATFSI/MeCN.
Setting [12] is: 0.5 M TBATFSI in MeCN, Solubility 0.5M TBATFSI/MeCN (M), electrolyte solution 0.5M TBATFSI/MeCN.
[13] abbreviates: 0.5 M TBATFSI in MeCN, maximum solubility in electrolyte solution, 0.5 M TBATFSI/MeCN.
The mark [14] stands for this setting: MeCN, Solubility MeCN (M), in MeCN.
Setting [15] is: 2nd event, after 100 cycles (in parentheses).
Setting [16] is: 2nd redox event, 4 mM in 0.1 M TBATFSI/MeCN.
Setting [17] is: second redox event, CV, 4 mM in 0.1 M TBATFSI/MeCN.
Where [18] appears, read: MeCN, Solubility (M) in MeCN, in MeCN.
Where [19] appears, read: after 100 cycles (in parentheses).
Where [20] appears, read: initial, 10 mM in 0.1 M TBABF4/MeCN.
[21] abbreviates: 1st redox event (or the only value given), 10 mM in 0.1 M TBABF4/MeCN.
Where [22] appears, read: 2nd redox event, 10 mM in 0.1 M TBABF4/MeCN.

With `C[N+](C)(C)CCC[c-]1cccc1.C[N+](C)(C)CCC[c-]1cccc1.O=S(=O)([N-]S(=O)(=O)C(F)(F)F)C(F)(F)F.O=S(=O)([N-]S(=O)(=O)C(F)(F)F)C(F)(F)F.[Fe+2]` [BTMAP-Fc·2TFSI^−, 1,1′-bis[3-(trimethylammonio)propyl]ferrocene dibis-trifluoromethanesulfonimidate, reference compound], in data set [1], the “electron-transfer constant (k^o)” value was 0.034 cm/s. Besides, the “k^o (electron-transfer constant)” value in data set [1] (setting [7]) stood at 0.034 cm/s. In addition, the “diffusion coefficient (D)” value in data set [2] is listed as 2.0×10^−6 cm^2 s^−1. Further, in data set [2] (setting [7]), the “D (diffusion coefficient)” value is 2.00 X10^−6 cm^2 s^−1. Further, in data set [3] (setting [8]), the “Ipa/Ipc @50 mV s^−1” value is 1.03 (1.03) and the ΔEp was 149 (149) mV. In data set [3] (setting [9]), the “Ipa/Ipc @50 mV s^−1” value is given as 1.03 (1.03) and the ΔEp is listed as 149 (149) mV. Moreover, in data set [3] (setting [10]), the “E^o′” value was −0.03 V vs. Fc/Fc^+. The “Formal potential (E^o′)” value in data set [3] (setting [11]) was −0.03 V vs. Fc/Fc^+. Besides, in data set [3], the “peak-to-peak potential difference (ΔEp)” value is reported as approximately 150 mV and the “anodic-to-cathodic peak current ratio (Ipa/Ipc)” value is on record as “about 1”.
Regarding `C[n+]1ccc(-c2nc3ccccc3s2)cc1` [BTP^+], the “time required for 10% decay associated with the crossover” value in data set [4] is 0.047 year; in data set [4] (listed as BTP^·), 0.0065 year. Besides, in data set [3] (100 CV cycles, FIGS. 6 and 7), the “cyclability in the CV profile” value is on record as “excellent cyclability”. The “time-dependent concentration decay of the radical” value in data set [5] is 0.63 %/day.
As to `C[n+]1ccc(-c2nc3ccccc3s2)cc1` [BTP^+·TFSI^−, 4-(benzo[d]thiazol-2-yl)-1-methylpyridin-1-ium bistriflimide], the “k^o (electron-transfer constant)” value in data set [1] (setting [7]) is “c1 = 0.086 cm s^−1”; in data set [1] (c2, second cathodic event), “c2 = 0.090 cm s^−1”. The “D (diffusion coefficient)” value in data set [2] (setting [7]) is reported as “c1 = 3.71 X10^−6 cm^2 s^−1”; in data set [2] (c2, second cathodic event) it was “c2 = 3.32 X10^−6 cm^2 s^−1”. Besides, the solubility in data set [6] (setting [12]) was 0.47 M; in data set [6] (setting [13]), 0.47 M; in data set [6] (setting [14]) it was 1 M. Moreover, the “Ipa/Ipc @50 mV s^−1” value in data set [3] (setting [8]) is “(0.99)”; in data set [3] (setting [9]) it was 1st = 1.01; in data set [3] (setting [15]), “(0.87)”; in data set [3] (2nd event, initial) it was 2nd = 0.95. Moreover, the ΔEp is on record as 1st = 99 (99) mV in data set [3] (setting [8]); 1st = 99 (99) mV in data set [3] (setting [9]); 84 mV in data set [3] (setting [15]); 93 mV in data set [3] (2nd event, initial). Further, the “E^o′” value in data set [3] (setting [10]) is on record as 1st = −1.21 V vs. Fc/Fc^+; in data set [3] (setting [16]) it was 2nd = −1.90 V vs. Fc/Fc^+. In addition, the “Formal potential (E^o′)” value in data set [3] (setting [11]) is listed as −1.21 V vs. Fc/Fc^+; in data set [3] (setting [17]) it was −1.90 V vs. Fc/Fc^+. Further, in data set [3], the “peak-to-peak potential difference (ΔEp)” value is reported as approximately 99 mV. Moreover, the “anodic-to-cathodic peak current ratio (Ipa/Ipc)” value in data set [3] came to 1.01.
In the case of `CCCCCC[n+]1ccc(-c2nc3ccccc3s2)cc1` [Hex-BTP^+·BF4^−, 4-(benzo[d]thiazol-2-yl)-1-hexylpyridin-1-ium tetrafluoroborate], the solubility in data set [6] (setting [18]) was found to be 0.23 M. Also, the figures for the “Peak to peak potential difference (ΔEp)” value in data set [3] (setting [19]) and in data set [3] (setting [20]) were 124 mV and 125 mV, respectively. Also, the “Ratio of anodic peak current (Ipa) to cathodic peak current (Ipc) (Ipa/Ipc) @50 mV s^−1” value in data set [3] (setting [19]) stood at 0.99; in data set [3] (setting [20]), 0.98. In addition, the “Formal potential (E^o′)” value in data set [3] (setting [21]) turned out to be 1st = −1.36 V vs. Fc/Fc^+; in data set [3] (setting [22]) it was 2nd = −2.13 V vs. Fc/Fc^+. The “potential shift after CV cycles” value in data set [3] is given as “positive (+) potential shift”.
`COCC[n+]1ccc(-c2nc3ccccc3s2)cc1` [MOE-BTP^+·BF4^−, 4-(benzo[d]thiazol-2-yl)-1-(2-methoxyethyl)pyridin-1-ium tetrafluoroborate]: in data set [6] (setting [18]), the solubility is 0.1 M. The “Peak to peak potential difference (ΔEp)” value in data set [3] (setting [19]) was 107 mV; in data set [3] (setting [20]), 104 mV. The figures for the “Ratio of anodic peak current (Ipa) to cathodic peak current (Ipc) (Ipa/Ipc) @50 mV s^−1” value in data set [3] (setting [19]) and in data set [3] (setting [20]) were 0.98 and 1.00, respectively. Also, the “Formal potential (E^o′)” value in data set [3] (setting [21]) came out at 1st = −1.24 V vs. Fc/Fc^+; in data set [3] (setting [22]), 2nd = −1.97 V vs. Fc/Fc^+. The “potential shift after CV cycles” value in data set [3] was “positive (+) potential shift”.
Take `C[N+](C)(C)CCC[n+]1ccc(-c2nc3ccccc3s2)cc1` [TMAP-BTP^2+]: in data set [1], the “electron-transfer constant (k^o)” value was approximately 0.1 cm/s. Also, the “time required for 10% decay associated with the crossover” value in data set [4] amounted to 0.37 year; in data set [4] (listed as TMAP-BTP^·+), 0.094 year. Besides, in data set [2], the “diffusion coefficient (D)” value is listed as 1.91×10^−6 cm^2 s^−1. Besides, the “Formal potential (E^o′)” value in data set [3] (setting [11]) is reported as −1.19 V vs. Fc/Fc^+; in data set [3] (setting [17]), −1.87 V vs. Fc/Fc^+. Moreover, the “peak-to-peak potential difference (ΔEp)” value in data set [3] is on record as 105 mV. Moreover, in data set [3], the “anodic-to-cathodic peak current ratio (Ipa/Ipc)” value is reported as “close to unity”. Further, the “time the reduced form remained stable in the electrolyte solution” value in data set [5] (electrolyte solution) is given as 4 days. In data set [5], the “time-dependent concentration decay of the radical” value came to 0.22 %/day.
For `C[N+](C)(C)CCC[n+]1ccc(-c2nc3ccccc3s2)cc1` [TMAP-BTP^2+·2TFSI^−, 4-(benzo[d]thiazol-2-yl)-1-(3-(trimethylammonio)propyl)pyridin-1-ium bistriflimide], the “k^o (electron-transfer constant)” value in data set [1] (setting [7]) is given as “c1 = 0.114 cm s^−1”; in data set [1] (c2, second cathodic event) it was “c2 = 0.124 cm s^−1”. Also, the “D (diffusion coefficient)” value is recorded as “c1 = 1.91 X10^−6 cm^2 s^−1” in data set [2] (setting [7]) and “c2 = 1.91 X10^−6 cm^2 s^−1” in data set [2] (c2, second cathodic event). The solubility in data set [6] (setting [12]) was 0.34 M; in data set [6] (setting [13]), 0.34 M; in data set [6] (setting [14]), 0.89 M. Besides, the “Ipa/Ipc @50 mV s^−1” value in data set [3] (setting [8]) is recorded as “(0.97)”; in data set [3] (setting [9]), 1st = 0.97; in data set [3] (setting [15]) it was “(1.18)”; in data set [3] (2nd event, initial) it was 2nd = 1.08. Moreover, the ΔEp result in data set [3] (setting [8]) was “(105) mV”; in data set [3] (setting [9]), 1st = 105 mV; in data set [3] (setting [15]) it was “(85) mV”; in data set [3] (2nd event, initial), 2nd = 94 mV. In addition, the “E^o′” value in data set [3] (setting [10]) is reported as 1st = −1.19 V vs. Fc/Fc^+; in data set [3] (setting [16]), 2nd = −1.87 V vs. Fc/Fc^+.

What is called solubility is the concentration that dissolves in the medium under given conditions.
